Experimental data: US11020415B2, “Use of albiflorin in preparation of products for improving function of intestinal flora system” (priority 2016, dated 2021)

Legend:
cannabinoid receptor CB2 = cannabinoid receptor CB2 (Homo sapiens, UniProt P34972); test: Cannabinoid receptor CB2 activity (stated, no method); settings: stated as finding of the invention's research; no data or method printed
[1] = tested on: intestinal flora in stressed rats; test: Targeted metabolomics of intestinal flora metabolism in chronic unpredictable mild stress (CUMS) model rats (PLS-DA, VIP analysis); type: in vivo, rat
Method: We established a chronic unpredictable mild stress (CUMS) model of rats, and used a new generation of targeted metabolomics method to study the metabolic function of intestinal flora in stressed rats.
(§1) We further administered the stressed model rats an albiflorin treatment for 7 consecutive days at each dose of 7 mg/k& for each treatment. 7 days later, we used metabolomics and a 16sDNA high-throughput metagenomic sequencing technology to re-evaluate the function and composition of intestinal flora in the rats. […] This was consistent with the results of analysis of flora composition.
As a positive drug, fluoxetine was continuously administered for 7 days at each dose of 10 mg/kg/d.

[2] = tested on: intestinal flora in stressed rats; test: High-throughput 16s metagenomic sequencing of intestinal flora composition in CUMS model rats (cluster analysis); type: in vivo, rat; settings: albiflorin 7 days
Method: as §1
FIG. 5 is a graph showing the cluster analysis of intestinal flora composition correlation.

[3] = after 7 days of administration of albiflorin

Sequence of cannabinoid receptor CB2 (P34972 whole entry): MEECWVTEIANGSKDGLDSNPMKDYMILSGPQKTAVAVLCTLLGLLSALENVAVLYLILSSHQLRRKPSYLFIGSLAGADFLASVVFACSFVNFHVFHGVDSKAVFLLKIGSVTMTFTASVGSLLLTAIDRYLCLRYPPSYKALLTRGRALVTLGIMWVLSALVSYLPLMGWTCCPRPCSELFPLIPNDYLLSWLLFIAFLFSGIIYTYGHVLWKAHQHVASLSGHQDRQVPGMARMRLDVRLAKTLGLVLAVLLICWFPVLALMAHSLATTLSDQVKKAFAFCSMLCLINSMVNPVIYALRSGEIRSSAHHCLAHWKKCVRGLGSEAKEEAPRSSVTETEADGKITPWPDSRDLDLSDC

| Structure (SMILES) | Action at cannabinoid receptor CB2 (cannabinoid receptor CB2) | Amounts of cholic acid, amino acids and vitamins (intestinal flora metabolites) compared with the depression group [1, 3] | Overall metabolism of intestinal flora compared with the depression group (VIP analysis) [1, 3] | Metabolism of intestinal flora relative to the normal group (PLS-DA multiple comparative analysis of metabolomics data) ([1]; albiflorin 7 consecutive days, 7 mg/k&, FIG. 1) | Amount of probiotic firmicutes, especially lactic acid bacteria, compared with the stressed rat model group [2] | Intestinal flora composition versus blank group (Control), cluster analysis [2] | Metabolism of rat intestinal flora relative to the normal state (multivariable PLS-DA analysis) ([1]; fluoxetine 7 days, 10 mg/kg/d, FIG. 6) |
| --- | --- | --- | --- | --- | --- | --- | --- |
| C[C@]12C[C@@H](O)[C@@H]3C[C@@]1(O[C@@H]1O[C@H](CO)[C@@H](O)[C@H](O)[C@H]1O)[C@@]3(COC(=O)c1ccccc1)C(=O)O2 [albiflorin] | agonist | increased | significantly improved | almost completely overlapped with the normal group | significantly increased | no statistical difference (P>0.05) | – |
| CNCCC(Oc1ccc(C(F)(F)F)cc1)c1ccccc1 (stereo not shown) [fluoxetine, reference compound] | – | – | – | – | – | – | deviated the metabolism of rat intestinal flora more from the normal state |
